This is an account of results in US20060269504A1, “Use of alkyl resorcinols in the treatment of acne” (priority 2003, published 2006).

≈ marks a conversion by molar mass, not a printed value. Entries after “also recorded” stand apart in the source; their conditions may differ. Read-outs that look alike come from different tables or passages of the source. A value given as a limit tells only on which side of the number the result lay.

Assay [1] concerns P. acnes G63 and P. avidum NCTC 11864. Put plainly: In vitro propionibacterial model: glucose biotransformation to propionic acid (GC) and culture viability (TVC). Particulars: for BIC50 MoA(s), mode(s) of action at BIC50 levels: P. acnes G63 and P. avidum NCTC 11864, by reference to culture viability data; for BIC50, mean concentration at 50% inhibition of glucose biotransformation to propionic acid: mean of P. acnes G63 and P. avidum NCTC 11864, anaerobic, 35° C.; for BIC50, mean concentration at 50% inhibition of glucose biotransformation to propionic acid / MBC, range of minimum bactericidal levels: 24 h; for MBC, range of minimum bactericidal levels: range for P. acnes G63 and P. avidum NCTC 11864, minimum level effecting >3 log10 reduction in viability. It is filed as cell-based. On the procedure: (§1) The propionibacterial model involved the use of 7 ml glass vials, to which were added 6.0 ml synthetic medium (see below), supplemented with glucose substrate (2.0 mg/ml). The corynebacterial model involved the use of 250 ml baffled shake flasks, to which were added 30.0 ml synthetic medium (see below), supplemented with fatty acid substrate (2.0 mg/ml pentadecanoic acid). To each vial or flask (other than controls) was also added one of the indicated test materials, from a 1.0-10.0% (w/v) stock solution in 50% (v/v) ethanol. Each assay was inoculated with fresh bacterial biomass (Propionibacterium acnes G63 [skin isolate], P. avidum NCTC 11864 or Corynebacterium sp. NCIMB 40928), pre-grown for 24-48 h, under aerobic (corynebacteria) or anaerobic (propionibacteria) conditions, in TSBT (see below), to give starting optical densities (A590) of ˜1.0. Following inoculation, the vials and flasks were incubated aerobically (corynebacteria) or anaerobically (propionibacteria) at 35° C., with agitation (120 rpm), for 24 h. After this time, culture viability was determined by total viable count (TVC) analysis on ACX plates (see below), following serial dilution in quarter-strength Ringers solution. Also, at the end of each experiment, the extent of glucose or fatty acid biotransformation to propionic acid was measured by capillary gas chromatography (GC) (see below), and the dose response data used to calculate, for each active ingredient, a BIC so value (50% biotransformation inhibition concentration). The mode of action (bacteriostatic or bactericidal) at this level was elucidated by reference to culture viability data, which was also used to determine the MBC (minimum bactericidal concentration), defined as the minimum level of each active effecting a >3 log10 ml^31 1 reduction in viability (Tables 1 & 2). Finally, the data for P. acnes G63 and P. avidum NCTC 11864 were combined to generate mean and range anti-propionibacterial values (Table 1).
(§2) KH2PO4 (1.6); (NH4)2HPO4 (5.0); Na2SO4 (0.38); KNO3 (0.1); NaHCO3 (1.0); sodium thioglycolate (1.0); sodium pyruvate (1.0); yeast nitrogen base (Difco) (3.35); MgCl2.6H2O (0.5).
(§3) Tryptone soya broth (Merck) (30.0); yeast extract (Beta Lab) (10.0); Tween 80™ (5.0).
(§4) blood agar base no. 2 (Oxoid) (39.5); yeast extract (Beta Lab) (3.0); glucose (2.0); Tween 80 ™ (5.0); defibrinated horse blood (50 ml/l).
(§5) 1.0 ml aliquots from each assay vial were transferred into sampling tubes, an internal standard (1.0 mg/ml caproic acid) added to each tube, and the culture medium acidified (pH˜2) by the addition of HCl. Liquid-liquid extraction was then carried out using 2 vol (2 ml) ethyl acetate, with organic and aqueous phases being resolved by centrifugation (2000 rpm, 2 min). ˜0.75 ml of each organic (upper) phase was then transferred to a fresh sampling tube prior to analysis on a Perkin Elmer 8000 (Series 2) GC fitted with a 15 m×0.32 mm (internal diameter) FFAP fused silica capillary column (film thickness 0.25 μm) (Quadrex). Metabolite levels were quantified by comparison of peak areas with known amounts of both internal (caproic acid) and externally-run (propionic acid) standards. GC running conditions as indicated: injector (split/splitless), 300° C.; detector (flame ionisation), 300° C.; oven, 80° C. (2 min), 80-155° C. (7.5° C./min), 155° C. (1 min); injection volume, 1.0 μl.

Assay [2] concerns Corynebacterium sp. NCIMB 40928. The assay can be described thus: In vitro corynebacterial model: pentadecanoic acid biotransformation to propionic acid (GC) and culture viability (TVC). It counts as cell-based. Particulars: for BIC50, concentration at 50% inhibition of pentadecanoic acid biotransformation to propionic acid: aerobic, 35° C.; for BIC50 MoA(s), mode of action at BIC50 level: by reference to culture viability data; for MBC: read-out: MBC, minimum bactericidal levels. Here is the method: as §1, §2, §3, §4, §5

Setting [3] is: Corynebacterium sp. NCIMB 40928, 24 h.
The mark [4] stands for this setting: Corynebacterium sp. NCIMB 40928.

In the case of `CCCCCCc1ccc(O)cc1O` [4-Hexylresorcinol, 4-hexylresorcinol], in assay [1], the “BIC50 MoA(s), mode(s) of action at BIC50 levels” value is “Bacteriostatic/; also recorded: Bactericidal”; the “BIC50, mean concentration at 50% inhibition of glucose biotransformation to propionic acid” value is 42 ppm; the “MBC, range of minimum bactericidal levels” value was 50-100 ppm. Moreover, the “selectivity for Propionibacterium spp. compared to other bacteria normally present on the skin” value in assay [1] (comparison of Tables 1 and 2, versus Triclosan) is listed as “far greater selectivity than Triclosan”. Moreover, in assay [1] (summary of Table 1), the “anti-propionibacterial properties compared with Triclosan” value was “as good as those of Triclosan”. Besides, the “BIC50, concentration at 50% inhibition of pentadecanoic acid biotransformation to propionic acid” value in assay [2] (setting [3]) was found to be 118 ppm. The “BIC50 MoA(s), mode of action at BIC50 level” value in assay [2] (setting [4]) was “Bacteriostatic”. The MBC (usually the smallest concentration meeting the test's criterion for killing) in assay [2] (NCIMB40928, Corynebacterium sp. NCIMB 40928, minimum level effecting >3 log10 reduction in viability, 24 h) was > 500 µg/mL.

As for `Oc1cc(Cl)ccc1Oc1ccc(Cl)cc1Cl` [Triclosan, 2,4,4′-trichloro-2′-hydroxydiphenyl ether, reference compound], in assay [1], the “BIC50 MoA(s), mode(s) of action at BIC50 levels” value was “Bactericidal; also recorded: Bacteriostatic/”; the “BIC50, mean concentration at 50% inhibition of glucose biotransformation to propionic acid” value turned out to be 39 ppm; the “MBC, range of minimum bactericidal levels” value is 50-100 ppm. In addition, in assay [2] (setting [3]), the “BIC50, concentration at 50% inhibition of pentadecanoic acid biotransformation to propionic acid” value amounted to 20 ppm. In addition, the “BIC50 MoA(s), mode of action at BIC50 level” value in assay [2] (setting [4]) was “Bacteriostatic”. Also, in assay [2] (Corynebacterium, NCIMB40928, 24 h), the MBC is 50 µg/mL (≈ 173 µM).
